PubChem BioAssay (NCI)
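Tested at 5 concentrations; 48 h exposure; 96-well plates; endpoints linearly interpolated, else capped at highest concentration. GI50 = concentration required for 50% inhibition of growth. TGI denotes the concentration required for complete inhibition of growth.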

What was measured:
Test in all cases: NCI-60 cell line screen, 48 h
[1] = test system: NCI-H23 lung
[2] = test system: HCT-15 colon
[3] = test system: U251 CNS
[4] = test system: MCF7 breast
[5] = test system: MOLT-4 leukemia
[6] = test system: IGROV1 ovarian
[7] = test system: BT-549 breast
[8] = test system: SF-295 CNS
[9] = test system: SR leukemia
[10] = test system: SNB-19 CNS
[11] = test system: OVCAR-3 ovarian
[12] = test system: OVCAR-4 ovarian
[13] = test system: MALME-3M melanoma
[14] = test system: RPMI-8226 leukemia
[15] = test system: HS 578T breast
[16] = test system: OVCAR-5 ovarian
[17] = test system: HOP-62 NSCLC
[18] = test system: CAKI-1 renal
[19] = test system: HOP-92 NSCLC
[20] = test system: MDA-MB-231 breast
[21] = test system: HCT-116 colon
[22] = test system: KM12 colon
[23] = test system: T-47D breast
[24] = test system: SNB-75 CNS
[25] = test system: A498 renal
[26] = test system: EKVX NSCLC
[27] = test system: COLO 205 colon
[28] = test system: UACC-62 melanoma
[29] = test system: HCC-2998 colon
[30] = test system: NCI-H460 lung
[31] = test system: 786-0 renal
[32] = test system: CCRF-CEM leukemia
[33] = test system: LOX IMVI melanoma
[34] = test system: SF-539 CNS
[35] = test system: NCI-H522 lung
[36] = test system: TK-10 renal
[37] = test system: PC-3 prostate
[38] = test system: HT29 colon
[39] = test system: SK-MEL-28 melanoma
[40] = test system: SF-268 CNS
[41] = test system: SK-MEL-5 melanoma
[42] = test system: DU-145 prostate
[43] = test system: SN12C renal
[44] = test system: HL-60(TB) leukemia
[45] = test system: SK-MEL-2 melanoma
[46] = test system: RXF 393 renal
[47] = test system: MDA-MB-435
[48] = test system: NCI-H226 lung
[49] = test system: SK-OV-3 ovarian
[50] = test system: K-562 leukemia
[51] = test system: UO-31 renal
[52] = test system: UACC-257 melanoma
[53] = test system: OVCAR-8 ovarian
[54] = test system: NCI/ADR-RES ovarian
[55] = test system: ACHN renal
[56] = test system: SW-620 colon
[57] = test system: M14 melanoma
[58] = test system: A549 NSCLC

Question: With `CN1CCN(Cc2ccc(NC(=O)c3cncc(C#Cc4cnc5[nH]ncc5c4)c3)cc2C(F)(F)F)CC1` as the compound, how does the GI50 [1] read?
Answer: 2.28 µM

Question: What about the TGI [1] of the same compound?
Answer: 16.6 µM

Question: What about the GI50 [2] of the same compound?
Answer: 2.97 µM

Question: What about the TGI [2] of the same compound?
Answer: 13.6 µM

Question: And the GI50 [3]?
Answer: 4.36 µM

Question: What about the TGI [3] of the same compound?
Answer: 25.4 µM

Question: What about the GI50 [4] of the same compound?
Answer: 3.9 µM

Question: What about the TGI [4] of the same compound?
Answer: 18.5 µM

Question: What about the GI50 [5] of the same compound?
Answer: 1.81 µM

Question: And the TGI [5]?
Answer: 22.4 µM

Question: And the GI50 [6]?
Answer: 0.685 µM

Question: And the TGI [6]?
Answer: 13.1 µM

Question: What about the GI50 [7] of the same compound?
Answer: 3.81 µM

Question: What about the TGI [7] of the same compound?
Answer: 16.7 µM

Question: And the GI50 [8]?
Answer: 3.13 µM

Question: What about the TGI [8] of the same compound?
Answer: 16.3 µM

Question: What about the GI50 [9] of the same compound?
Answer: 0.851 µM

Question: What about the TGI [9] of the same compound?
Answer: 11.4 µM

Question: And the GI50 [10]?
Answer: 8.72 µM

Question: And the TGI [10]?
Answer: 21.4 µM

Question: What about the GI50 [11] of the same compound?
Answer: 3.04 µM

Question: What about the TGI [11] of the same compound?
Answer: 16.5 µM

Question: And the GI50 [12]?
Answer: 3.03 µM

Question: And the TGI [12]?
Answer: 25.8 µM

Question: And the GI50 [13]?
Answer: 0.422 µM

Question: What about the TGI [13] of the same compound?
Answer: 2.81 µM

Question: And the GI50 [14]?
Answer: 4.03 µM

Question: And the TGI [14]?
Answer: 50.3 µM

Question: What about the GI50 [15] of the same compound?
Answer: 1.27 µM

Question: And the TGI [15]?
Answer: 13.9 µM

Question: What about the GI50 [16] of the same compound?
Answer: 3.24 µM

Question: And the TGI [16]?
Answer: 17.4 µM

Question: What about the GI50 [17] of the same compound?
Answer: 4.06 µM

Question: And the TGI [17]?
Answer: 16.6 µM

Question: What about the GI50 [18] of the same compound?
Answer: 0.52 µM

Question: What about the TGI [18] of the same compound?
Answer: 10.9 µM

Question: What about the GI50 [19] of the same compound?
Answer: 1.32 µM

Question: And the TGI [19]?
Answer: 6.02 µM

Question: What about the GI50 [20] of the same compound?
Answer: 1.11 µM

Question: What about the TGI [20] of the same compound?
Answer: 6.55 µM

Question: What about the GI50 [21] of the same compound?
Answer: 0.737 µM

Question: And the TGI [21]?
Answer: 12.8 µM

Question: What about the GI50 [22] of the same compound?
Answer: 0.107 µM

Question: What about the TGI [22] of the same compound?
Answer: 12.1 µM

Question: And the GI50 [23]?
Answer: 3.2 µM

Question: What about the TGI [23] of the same compound?
Answer: 23 µM

Question: What about the GI50 [24] of the same compound?
Answer: 3.4 µM

Question: What about the TGI [24] of the same compound?
Answer: 18.3 µM

Question: What about the GI50 [25] of the same compound?
Answer: 1.96 µM

Question: And the TGI [25]?
Answer: 15 µM

Question: What about the GI50 [26] of the same compound?
Answer: 2.72 µM

Question: What about the TGI [26] of the same compound?
Answer: 18 µM

Question: What about the GI50 [27] of the same compound?
Answer: 1.87 µM

Question: And the TGI [27]?
Answer: 13.2 µM

Question: And the GI50 [28]?
Answer: 1.09 µM

Question: What about the TGI [28] of the same compound?
Answer: 5.56 µM

Question: And the GI50 [29]?
Answer: 4.51 µM

Question: And the TGI [29]?
Answer: 18.6 µM

Question: What about the GI50 [30] of the same compound?
Answer: 1.3 µM

Question: What about the TGI [30] of the same compound?
Answer: 13.9 µM

Question: What about the GI50 [31] of the same compound?
Answer: 3.55 µM

Question: And the TGI [31]?
Answer: 27 µM

Question: And the GI50 [32]?
Answer: 3.64 µM

Question: And the TGI [32]?
Answer: 66.6 µM

Question: What about the GI50 [33] of the same compound?
Answer: 0.618 µM

Question: And the TGI [33]?
Answer: 2.38 µM

Question: And the GI50 [34]?
Answer: 0.925 µM

Question: And the TGI [34]?
Answer: 4.99 µM

Question: And the GI50 [35]?
Answer: 1 µM

Question: What about the TGI [35] of the same compound?
Answer: 11.3 µM

Question: What about the GI50 [36] of the same compound?
Answer: 3.45 µM

Question: And the TGI [36]?
Answer: 17.9 µM

Question: And the GI50 [37]?
Answer: 3.7 µM

Question: What about the TGI [37] of the same compound?
Answer: 60.9 µM

Question: What about the GI50 [38] of the same compound?
Answer: 1.23 µM

Question: What about the TGI [38] of the same compound?
Answer: 13.7 µM

Question: What about the GI50 [39] of the same compound?
Answer: 1.7 µM

Question: And the TGI [39]?
Answer: 8.66 µM

Question: What about the GI50 [40] of the same compound?
Answer: 2.54 µM

Question: What about the TGI [40] of the same compound?
Answer: 16.8 µM

Question: And the GI50 [41]?
Answer: 2.71 µM

Question: And the TGI [41]?
Answer: 12.6 µM

Question: What about the GI50 [42] of the same compound?
Answer: 1.54 µM

Question: And the TGI [42]?
Answer: 16.4 µM

Question: And the GI50 [43]?
Answer: 1.82 µM

Question: And the TGI [43]?
Answer: 11.4 µM

Question: What about the GI50 [44] of the same compound?
Answer: 0.695 µM

Question: What about the TGI [44] of the same compound?
Answer: 13.2 µM

Question: What about the GI50 [45] of the same compound?
Answer: 0.535 µM

Question: What about the TGI [45] of the same compound?
Answer: 2.78 µM

Question: And the GI50 [46]?
Answer: 0.612 µM

Question: And the TGI [46]?
Answer: 5.68 µM

Question: And the GI50 [47]?
Answer: 1.22 µM

Question: And the TGI [47]?
Answer: 14.5 µM

Question: And the GI50 [48]?
Answer: 0.704 µM

Question: What about the TGI [48] of the same compound?
Answer: 9.53 µM

Question: What about the GI50 [49] of the same compound?
Answer: 1.79 µM

Question: What about the TGI [49] of the same compound?
Answer: 13.5 µM

Question: What about the TGI [50] of the same compound?
Answer: > 100 µM

Question: And the GI50 [51]?
Answer: 3.23 µM

Question: And the TGI [51]?
Answer: 10.8 µM

Question: What about the GI50 [52] of the same compound?
Answer: 2.86 µM

Question: What about the TGI [52] of the same compound?
Answer: 17 µM

Question: What about the GI50 [53] of the same compound?
Answer: 4.26 µM

Question: And the TGI [53]?
Answer: 20.3 µM

Question: What about the GI50 [54] of the same compound?
Answer: 7.07 µM

Question: What about the TGI [54] of the same compound?
Answer: 42.1 µM

Question: What about the GI50 [55] of the same compound?
Answer: 0.888 µM

Question: And the TGI [55]?
Answer: 10.8 µM

Question: And the GI50 [56]?
Answer: 1.65 µM

Question: And the TGI [56]?
Answer: 16.2 µM

Question: And the GI50 [57]?
Answer: 0.524 µM

Question: And the TGI [57]?
Answer: 6.6 µM

Question: And the GI50 [58]?
Answer: 4.31 µM

Question: And the TGI [58]?
Answer: 39.5 µM
